Laboratory results as given in US20210059995A1, “Composition for Protecting Cornea” (Kyoto University, priority 2017, published 2021).

Key:
[1] = tested on: rabbit corneal endothelial cells; assay: Cell morphology (phase-contrast) of cultured rabbit corneal endothelial cells under antimycin, oligomycin or glucose deprivation; format: cell-based; details: compound 50 μM
Procedure: (§1) Whole eyeballs of Japanese white rabbits (Funakoshi Corporation) were cut along corneal limbus with a razor blade and the corneas were isolated. The corneal endothelial cells were mechanically scraped off and collected with a crescent knife. Primary cultures were prepared in a DMEM with 10% fetal bovine serum and 2 ng/ml bFGF. The sub-confluent cells were treated with trypsin and collected, then plated on 12-well plates at the equal density of 4×10^4 cells/well and cultured in the same medium for 24 hours. The cells were subsequently cultured in the following eight different conditions: (1) control (the medium+DMSO), (2) the medium+KUS121 (50 μM), (3) the medium+antimycin (20 μM), (4) the medium+antimycin (20 μM)+KUS121 (50 μM), (5) the medium+oligomycin (10 μM), (6) the medium+oligomycin (10 μM)+KUS121 (50 μM), (7) DMEM with 2 ng/ml bFGF (non-glucose); and (8) DMEM with 2 ng/ml bFGF (non-glucose)+KUS121 (50 μM).
After the addition of the agents, sequential phase-contrast images of the cultured corneal endothelial cells were obtained.

[2] = tested on: rabbit corneal endothelial cells; assay: Intracellular ATP concentration (luciferase assay) in cultured rabbit corneal endothelial cells; format: cell-based; details: compound 50 μM, FIG. 3
Procedure: as §1
The corneal endothelial cells cultured in the presence of the agents (P=1) were washed with PBS(−), treated with trypsin, suspended in the medium (DMEM with 10% fetal bovine serum and 2 ng/ml bFGF), and counted. Then 2.5×10^4 cells were centrifuged, suspended in PBS(−), and dispensed into 5 wells of a 96-well plate at the density of 5×10^3 cells/well. The cells were subjected to a luciferase assay (“Cell” ATP Assay reagent, TOYO B-Net CO., LTD.). The fluorescence intensities were measured as relative intracellular ATP concentrations using a luminometer.

[3] = tested on: immortalized human corneal endothelial cells (iHCECs); assay: Cell morphology and apoptosis of thapsigargin-treated immortalized human corneal endothelial cells by phase-contrast microscopy; format: cell-based; details: 10 μM thapsigargin for 8 hours, compound 10, 25, 50 or 100 μM with 24 hours pretreatment, FIG. 4
Procedure: Corneas for research were imported from SightLife™ (Seattle, Wash.). The cornea endothelial cells were stripped from the corneas with Descemet's membranes and immersed in a corneal preservation solution (Optisol-GS, Bausch & Lomb Incorporated). The cornea endothelial cells were treated with collagenase and collected. The cells were cultured in a conditioned medium which was prepared by culturing 3T3 cells in OptiMEM (Gibco, 3195070) with 10% fetal bovine serum (FBS) for 24 hours and then adding 10 μM SB203580 (Funakoshi, 13067) and 1 μM SB431542 (Wako, 192-16541) to the culture medium.
The corneal endothelial cells were immortalized by the following procedures. SV40 large T antigen and hTERT genes were amplified by PCR, and introduced into a lentiviral vector (pLenti6.3-V5-TOPO; Life Technologies Inc.). The lentiviral vector and three helper plasmids (pLP1, pLP2, pLP/VSVG; Life Technologies Inc.) were transfected into 293T cells (RCB2202; Riken Bioresource Center, Ibaraki, Japan) with a transfection reagent (Fugene HD; Promega Corp., Madison, Wis.). The culture supernatant containing the virus was collected 48 hours after the transfection and added to the culture medium of the cornea endothelial cells with 5 μg/ml of Polybrene, thereby the SV40 large T antigen and hTERT genes were introduced into the cells. […]

[4] = tested on: immortalized human corneal endothelial cells (iHCECs); assay: Western blot analysis of cleaved caspase 3 and PARP in thapsigargin-treated immortalized human corneal endothelial cells; format: cell-based; details: 10 μM thapsigargin for 8 hours, compound 10, 25, 50 or 100 μM, FIG. 5
Procedure: The medium was changed to the medium containing 10 μM thapsigargin (WAKO, 209-17281) and KUS121 (10 μM, 25 μM, 50 μM, or 100 μM), and the cells were cultured for 8 hours. Medium: DMEM+10% FBS+1% P/S
After the observation of the morphology, western blot analysis was performed by the following procedures.
The media were collected from each well on ice, the cells were washed twice with 1×PBS(−), and the washings were collected. In order to collect suspended cells and dead cells, the collected media and washings were centrifuged at 4° C., 800 g, for 12 minutes, the supernatants were discarded and the pellets were obtained. Protein extraction buffers (RIPA; 50 mM Tris-HCl (pH 7.4), 150 mM NaCl, 1 mM EDTA, 0.1% SDS, 0.5% DOC, 1% NP-40) were added to the washed cells on ice. The cells were suspended together with the pellets of the suspended cells and dead cells. […]
The protein extracts (7 μg each) were separated by SDS-PAGE and transferred to a nitrocellulose membrane. […] The signals were detected by Chemi Lumi ONE Ultra (NACALAI TESQUE, INC., 11644-40). The intensities of the detected bands were analyzed by luminescent image analyzer LAS-4000 mini (Fujifilm Corporation) and ImageQuant™ software (GE Healthcare).

rabbit corneas [5] = assay: Rabbit corneas preserved in Optisol-GS: HE-staining microscopic findings and central corneal thickness; details: Optisol-GS at 4° C., 1-4 weeks, KUS121 50 μM, KUS187 20 μM; for swelling of corneal endothelial cells during preservation: control swelled at week 1; for swelling of corneal endothelial cells during preservation / swelling of corneal stroma during preservation: FIG. 6; for swelling of corneal stroma during preservation: control swelled at week 3; for corneal epitheliums and cornea thicknesses versus control group: especially at week 3 or later, FIG. 6, 7
Procedure: (§2) Japanese white rabbits were euthanized, whole eyeballs were excised, and sclerocorneal preparations were prepared by using a razor blade. Each four sclerocorneal preparations were preserved in the following preservation solutions at 4° C. for 4 weeks; (1) Optisol-GS (control), (2) Optisol-GS+KUS121 (50 μM), or (3) Optisol-GS+KUS187 (20 μM). The tissues were sequentially embedded and sectioned.
The tissue sections were stained with HE-staining and observed by microscopy. The images were compared over time among the preservation conditions (FIG. 6). Microscopic images of the sections including the central parts of the corneas were obtained and the central corneal thicknesses were measured and compared over time among the preservation conditions (FIG. 7). In the corneas preserved in Optisol-GS (control), the corneal endothelial cells swelled at week 1 and the corneal stroma swelled at week 3.

[6] = tested on: rabbit corneal epithelial cells; assay: Rabbit corneas preserved in Optisol-GS: apoptosis of corneal epithelial cells by TUNEL assay; details: Optisol-GS at 4° C., 1-4 weeks; KUS121 50 μM, KUS187 20 μM; FIG. 8-10
Procedure: as §2
The tissue sections were fluorescently stained by TUNEL method and observed by confocal microscopy. Images of the epithelial layers around the centers of the corneas were obtained in three different fields (FIG. 8). […] The total corneal epithelial cells stained with PI and the TUNEL-positive cells were counted and the percentages of the TUNEL-positive cells were calculated. The percentages were compared over time among the preservation conditions (FIG. 10). The TUNEL-positive apoptotic cells were increased in the corneal epithelial cells of the control group after week 1. The apoptosis was suppressed in the KUS121 and KUS187 groups.

[7] = tested on: rabbit corneal endothelial cells; assay: Rabbit corneas preserved in Optisol-GS: corneal endothelia by immunofluorescence staining of Na+/K+ ATPase; details: Optisol-GS at 4° C., from week 1; KUS121 50 μM, KUS187 20 μM; FIG. 11
Procedure: as §2
The tissue sections were fluorescently stained with anti-Na+/K+ ATPase antibody, the corneal endothelia around the centers of the corneas were observed by indirect immunofluorescence microscopy, and the images were compared over time among the preservation conditions (FIG. 11).

rabbit corneas [8] = assay: Rabbit corneas preserved in Optisol-GS: transmission electron microscopy; details: corneas preserved for one week in Optisol-GS at 4° C., compound 50 μM, FIG. 13
Procedure: as §2
Corneas preserved for one week were immersed in 0.1 M phosphate buffer containing 2% glutaraldehyde at 4° C. for prefixation, in 0.1 M phosphate buffer at 4° C. overnight for washing, and in 2% aqueous osmium solution at 4° C. for 3 hours for postfixation. For dehydration the corneas were successively immersed in ethanol solutions of high concentrations (50, 70, 90, 100, 100, and 100%) at 4° C. (50%) or a room temperature for 15 minutes. For substitution the corneas were immersed in propylene oxide at a room temperature for 45 minutes and then in a mixture of propylene oxide and epoxy resin at a room temperature for 1.5 hours. For embedding the samples and epoxy resin were put into capsules and cured at 60° C. for 48 hours. Then 80-90 nm sections were prepared by using an ultramicrotome and put on 200 meshes. The sections were stained with 2% uranyl acetate and lead and reinforced by carbon deposition (reinforcement of sections against electron beams). […]

Compound | death of corneal endothelial cells caused by antimycin ([1]; antimycin 20 μM, 28 hours after addition of the agents, FIG. 1) | death of corneal endothelial cells caused by glucose deprivation ([1]; cultured without glucose, 96 hours, FIG. 2) | death of corneal endothelial cells caused by oligomycin ([1]; oligomycin 10 μM, 28 hours after addition of the agents, FIG. 1) | decrease of intracellular ATP concentration in the absence of glucose ([2]; absence of glucose for 96 hours) | decrease of intracellular ATP concentration caused by antimycin ([2]; antimycin 20 μM for 27 hours) | decrease of intracellular ATP concentration caused by oligomycin ([2]; oligomycin 10 μM for 27 hours) | deformation of the cells (cell damage) caused by thapsigargin [3] | band of cleaved caspase 3 (about 17 kDa) induced by thapsigargin [4] | swelling of corneal endothelial cells during preservation (rabbit corneas [5]) | swelling of corneal stroma during preservation (rabbit corneas [5]) | corneal epitheliums and cornea thicknesses versus control group (rabbit corneas [5]) | TUNEL-positive cells among corneal epithelial cells versus control group [6] | corneal endothelial cells (Na+/K+ ATPase staining) versus control group [7] | swelling of the corneal stroma and the corneal endothelial cells (electron microscopy) (rabbit corneas [8]) | vacuolization of the corneal epithelial cells and loss of microvilli (rabbit corneas [8])
Cc1cc(F)ccc1-c1ccc(N=Nc2cc(S(=O)(=O)[O-])c3ccccc3c2N)cn1.[Na+] [KUS121, 4-amino-3-[6-(4-fluoro-2-methylphenyl)pyridine-3-ylazo]naphthalene-1-sulfonic acid sodium salt] | the cell death was suppressed | the cell death was suppressed | the cell death was suppressed | the decrease was suppressed | the decrease was suppressed | the decrease was suppressed | the deformation was suppressed | hardly detected | the cell swelling was suppressed until week 2 | the corneal stroma swelling was kept mild until week 4 | maintained better | fewer through the test period than in the control group | maintained better | observed in the control, but not in the corneas preserved in a solution containing KUS121 | observed in the control, but not in the corneas preserved in a solution containing KUS121
CCCCOc1c(C=O)cc(C)cc1-c1ccc(N=Nc2cc(S(=O)(=O)[O-])c3ccccc3c2N)cn1.[Na+] [KUS187, 4-amino-3-[6-(3-formyl-2-butoxy-5-methylphenyl)pyridine-3-ylazo]naphthalene-1-sulfonic acid sodium salt] | – | – | – | – | – | – | – | – | the cell swelling was suppressed until week 2 | the corneal stroma swelling was kept mild until week 4 | maintained better | fewer through the test period than in the control group | maintained better | – | –
